Experimental data: patent US20220226337A1 (Gilead Sciences, Inc., priority 2018, published 2022)
pEC50: −log10 of the molar value.

Target: T1, α4β7 integrin interaction with MadCAM-1 (RPMI8866 cells) (Homo sapiens, UniProt P13612+P26010)
T1 construct: α4β7 integrin expressing cells; endogenous in cells; host or cells: RPMI8866 cells
T1 sequence (P13612 34-1032): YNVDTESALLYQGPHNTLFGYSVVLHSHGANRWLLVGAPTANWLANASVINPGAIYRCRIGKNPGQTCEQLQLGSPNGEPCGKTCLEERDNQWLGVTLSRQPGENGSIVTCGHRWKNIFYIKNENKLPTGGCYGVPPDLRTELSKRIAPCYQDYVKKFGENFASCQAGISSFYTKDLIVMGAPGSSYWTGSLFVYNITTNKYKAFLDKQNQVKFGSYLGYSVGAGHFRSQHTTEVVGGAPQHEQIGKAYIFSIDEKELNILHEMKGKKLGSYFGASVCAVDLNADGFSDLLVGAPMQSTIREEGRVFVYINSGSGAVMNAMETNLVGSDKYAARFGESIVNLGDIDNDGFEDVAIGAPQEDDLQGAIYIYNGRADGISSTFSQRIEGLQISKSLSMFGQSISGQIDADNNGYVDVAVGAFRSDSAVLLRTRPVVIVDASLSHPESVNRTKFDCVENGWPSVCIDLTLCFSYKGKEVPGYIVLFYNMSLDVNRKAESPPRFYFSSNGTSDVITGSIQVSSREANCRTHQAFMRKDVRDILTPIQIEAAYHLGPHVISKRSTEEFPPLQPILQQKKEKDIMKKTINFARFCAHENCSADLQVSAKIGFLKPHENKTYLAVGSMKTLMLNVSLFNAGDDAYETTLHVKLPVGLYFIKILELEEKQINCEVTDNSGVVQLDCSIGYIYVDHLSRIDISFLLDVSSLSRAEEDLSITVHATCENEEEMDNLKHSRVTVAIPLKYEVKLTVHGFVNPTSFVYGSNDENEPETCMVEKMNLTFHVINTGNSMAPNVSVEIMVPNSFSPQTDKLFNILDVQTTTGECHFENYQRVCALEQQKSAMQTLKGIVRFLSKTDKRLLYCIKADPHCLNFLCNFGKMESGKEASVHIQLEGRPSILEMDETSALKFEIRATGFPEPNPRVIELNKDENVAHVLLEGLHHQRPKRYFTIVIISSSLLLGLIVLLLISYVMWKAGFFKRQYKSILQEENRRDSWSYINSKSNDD
T1 sequence (P26010 20-798): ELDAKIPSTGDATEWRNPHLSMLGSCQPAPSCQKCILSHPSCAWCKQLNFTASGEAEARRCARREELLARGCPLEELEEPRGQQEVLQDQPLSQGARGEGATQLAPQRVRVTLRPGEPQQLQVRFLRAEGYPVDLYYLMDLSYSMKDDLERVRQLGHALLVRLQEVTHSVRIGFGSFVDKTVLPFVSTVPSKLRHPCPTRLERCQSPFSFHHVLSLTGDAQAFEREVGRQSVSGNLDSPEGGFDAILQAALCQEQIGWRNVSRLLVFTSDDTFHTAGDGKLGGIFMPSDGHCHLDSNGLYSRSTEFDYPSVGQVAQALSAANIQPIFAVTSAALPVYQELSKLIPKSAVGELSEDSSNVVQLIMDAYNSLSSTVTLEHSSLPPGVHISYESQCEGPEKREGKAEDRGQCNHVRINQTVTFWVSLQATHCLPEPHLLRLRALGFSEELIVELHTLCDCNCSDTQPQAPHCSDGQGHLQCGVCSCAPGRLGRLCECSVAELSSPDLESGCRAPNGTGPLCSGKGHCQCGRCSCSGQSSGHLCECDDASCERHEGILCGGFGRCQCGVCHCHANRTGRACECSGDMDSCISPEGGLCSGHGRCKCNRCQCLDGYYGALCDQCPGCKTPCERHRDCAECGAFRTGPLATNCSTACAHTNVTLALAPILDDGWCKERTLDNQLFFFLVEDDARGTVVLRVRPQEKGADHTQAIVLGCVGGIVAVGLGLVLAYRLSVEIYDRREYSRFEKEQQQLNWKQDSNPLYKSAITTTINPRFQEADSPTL
Assay: α4β7 Integrin Cell Capture Assay
Assay type: cell-based
Settings: capture of α4β7 integrin expressing RPMI8866 cells on recombinant MadCAM-1 extracellular domain-coated plate; 0.5 mM MnCl2
Procedure: The potency of inhibitors in preventing α4β7 integrin interaction with MadCAM-1 was measured by monitoring the capture of α4β7 integrin expressing cells on a recombinant MadCAM-1 extracellular domain-coated plate. 384-well plates (Corning 3702) were coated with MadCAM-1 extracellular domain by dispensing 20 μL of MAdCAM-1 at 1.0 μg/mL per well and incubating overnight at 4° C. The plates were then washed with PBS and blocked with 3% BSA for 2 hours before being washed again. RPMI8866 cells were spun down and re-suspended in assay medium (DMEM+0.5% FBS+0.5 mM MnCl2) at a density of 0.5×10^6 cells/mL. The cells were then dispensed (60 μL/well) to a 384-well plate (Greiner 781280) that was previously spotted with 60 nL of test compound per well. The plates were incubated at 37° C. for 1 hour. 50 μL of cells were transferred to the blocked, MadCAM-1-coated plates and incubated for 30 minutes at 37° C. 10 μL of 12% glutaraldehyde containing Hoechst 33342 (0.06 mg/mL) was added to the cells (2% glutaraldehyde and 0.01 mg/mL final concentrations). The plates were incubated for 90 minutes at room temperature. The plates were then washed 3 times with 70 μL of PBS per well and imaged on a Cellomics ArrayScan instrument. The cells that were bound to the plate were counted and plotted against the compound concentration to determine the EC50 of the test compounds.

pEC50	SMILES
8.22	CC[C@@H](Nc1cc(F)c(C(=O)N[C@@H](Cc2ccc(-c3cc4ccccc4n(C)c3=O)c3c2COC3)C(=O)O)c(F)c1)C(F)(F)F [Example 21, (S)-2-(2,6-difluoro-4-(((R)-1,1,1-trifluorobutan-2-yl)amino)benzamido)-3-(7-(1-methyl-2-oxo-1,2-dihydroquinolin-3-yl)-1,3-dihydroisobenzofuran-4-yl)propanoic acid]
8.87	CC[C@@H](Nc1cc(F)c(C(=O)N[C@@H](Cc2ccc(-c3c(C)cc(C)n(C)c3=O)c3c2COC3)C(=O)O)c(F)c1)C(F)(F)F [Example 22, (S)-2-(2,6-difluoro-4-(((R)-1,1,1-trifluorobutan-2-yl)amino)benzamido)-3-(7-(1,4,6-trimethyl-2-oxo-1,2-dihydropyridin-3-yl)-1,3-dihydroisobenzofuran-4-yl)propanoic acid]
9.16	CC[C@@H](Nc1cc(F)c(C(=O)N[C@@H](Cc2ccc(-c3c(OC)cc(C)n(C)c3=O)c3c2COC3)C(=O)O)c(F)c1)C(F)(F)F [Example 23, (S)-2-(2,6-difluoro-4-(((R)-1,1,1-trifluorobutan-2-yl)amino)benzamido)-3-(7-(4-methoxy-1,6-dimethyl-2-oxo-1,2-dihydropyridin-3-yl)-1,3-dihydroisobenzofuran-4-yl) propanoic acid]
7.00	CC[C@@H](Nc1cc(F)c(C(=O)N[C@@H](Cc2ccc(-c3ncc(C)c(C)n3)c3c2COC3)C(=O)O)c(F)c1)C(F)(F)F [Example 24, (S)-2-(2,6-difluoro-4-(((R)-1,1,1-trifluorobutan-2-yl)amino)benzamido)-3-(7-(4,5-dimethylpyrimidin-2-yl)-1,3-dihydroisobenzofuran-4-yl)propanoic acid]
8.98	Cn1c(=O)c(-c2ccc(C[C@H](NC(=O)c3c(F)cc(N4CCOC[C@@H]4C(F)(F)F)cc3F)C(=O)O)c3c2COC3)cc2ccccc21 [Example 26, (S)-2-(2,6-difluoro-4-((R)-3-(trifluoromethyl)morpholino)benzamido)-3-(7-(1-methyl-2-oxo-1,2-dihydroquinolin-3-yl)-1,3-dihydroisobenzofuran-4-yl)propanoic acid]
9.09	Cc1cc(C)n(C)c(=O)c1-c1ccc(C[C@H](NC(=O)c2c(F)cc(N3CCOC[C@@H]3C(F)(F)F)cc2F)C(=O)O)c2c1COC2 [Example 27, (S)-2-(2,6-difluoro-4-((R)-3-(trifluoromethyl)morpholino)benzamido)-3-(7-(1,4,6-trimethyl-2-oxo-1,2-dihydropyridin-3-yl)-1,3-dihydroisobenzofuran-4-yl)propanoic acid]
7.02	Cc1cnc(-c2ccc(C[C@H](NC(=O)c3c(F)cc(N4CCOC[C@@H]4C(F)(F)F)cc3F)C(=O)O)c3c2COC3)nc1C [Example 28, (S)-2-(2,6-difluoro-4-((R)-3-(trifluoromethyl)morpholino)benzamido)-3-(7-(4,5-dimethylpyrimidin-2-yl)-1,3-dihydroisobenzofuran-4-yl)propanoic acid]
9.09	Cc1c(C(F)(F)F)cn(C)c(=O)c1-c1ccc(C[C@H](NC(=O)c2c(F)cc(N3CCOC[C@@H]3C(F)(F)F)cc2F)C(=O)O)c2c1COC2 [Example 29, (S)-2-(2,6-difluoro-4-((R)-3-(trifluoromethyl)morpholino)benzamido)-3-(7-(1,4-dimethyl-2-oxo-5-(trifluoromethyl)-1,2-dihydropyridin-3-yl)-1,3-dihydroisobenzofuran-4-yl)propanoic acid]
8.76	Cc1cc(C)n(C)c(=O)c1-c1ccc(C[C@H](NC(=O)c2c(F)cc(N[C@H](C)C(F)(F)F)cc2F)C(=O)O)c2c1COC2 [Example 30, (S)-2-(2,6-difluoro-4-(((R)-1,1,1-trifluoropropan-2-yl)amino)benzamido)-3-(7-(1,4,6-trimethyl-2-oxo-1,2-dihydropyridin-3-yl)-1,3-dihydroisobenzofuran-4-yl)propanoic acid]
8.05	CC[C@@H](Nc1cc(F)c(C(=O)N[C@@H](Cc2ccc(-c3cc4ccccc4n(C)c3=O)c3c2CCCO3)C(=O)O)c(F)c1)C(F)(F)F [Example 31, (S)-2-(2,6-difluoro-4-(((R)-1,1,1-trifluorobutan-2-yl)amino)benzamido)-3-(8-(1-methyl-2-oxo-1,2-dihydroquinolin-3-yl)chroman-5-yl)propanoic acid]
8.75	Cn1c(=O)c(-c2ccc(C[C@H](NC(=O)c3c(F)cc(N4CCOC[C@@H]4C(F)(F)F)cc3F)C(=O)O)c3c2OCCC3)cc2ccccc21 [Example 32, (S)-2-(2,6-difluoro-4-((R)-3-(trifluoromethyl)morpholino)benzamido)-3-(8-(1-methyl-2-oxo-1,2-dihydroquinolin-3-yl)chroman-5-yl)propanoic acid]
8.56	CC[C@@H](Nc1cc(F)c(C(=O)N[C@@H](Cc2ccc(-c3c(C)c4cc(F)ccc4n(C)c3=O)c3c2CCCO3)C(=O)O)c(F)c1)C(F)(F)F [Example 33, (S)-2-(2,6-difluoro-4-(((R)-1,1,1-trifluorobutan-2-yl)amino)benzamido)-3-(8-(6-fluoro-1,4-dimethyl-2-oxo-1,2-dihydroquinolin-3-yl)chroman-5-yl)propanoic acid]
9.63	Cc1c(-c2ccc(C[C@H](NC(=O)c3c(F)cc(N4CCOC[C@@H]4C(F)(F)F)cc3F)C(=O)O)c3c2OCCC3)c(=O)n(C)c2ccc(F)cc12 [Example 34, (S)-2-(2,6-difluoro-4-((R)-3-(trifluoromethyl)morpholino)benzamido)-3-(8-(6-fluoro-1,4-dimethyl-2-oxo-1,2-dihydroquinolin-3-yl)chroman-5-yl)propanoic acid]
8.71	Cc1c(-c2ccc(C[C@H](NC(=O)c3c(F)cccc3F)C(=O)O)c3c2CCOC3)c(=O)n(C)c2ccc(F)cc12 [Example 35, (S)-2-(2,6-difluorobenzamido)-3-(5-(6-fluoro-1,4-dimethyl-2-oxo-1,2-dihydroquinolin-3-yl)isochroman-8-yl)propanoic acid]
7.69	Cn1c(=O)c(-c2ccc(C[C@H](NC(=O)c3c(Cl)cccc3Cl)C(=O)O)c3c2OC(C)(C)C3)cc2ccccc21 [Example 38, (S)-2-(2,6-dichlorobenzamido)-3-(2,2-dimethyl-7-(1-methyl-2-oxo-1,2-dihydroquinolin-3-yl)-2,3-dihydrobenzofuran-4-yl)propanoic acid]
